Results taken from patent US6933131B2, “Nucleic acids encoding insect acetylcholine receptor subunits” (Bayer Aktiengesellschaft, priority 1998, dated 2005).

Test system: acetylcholine receptors according to the invention (recombinantly modified HEK293 cells of Example 2)
Details: nicotine final concentration 500 μM; HEK293 cells expressing the α subunit of an L-type Ca channel, recombinantly modified as in Example 2; FIG. 1
Method: Cells were loaded with Fura-2-acetoxymethyl ester (5-10 μM in serum-free minimal essential medium containing 1% bovine serum albumin and 5 mM calcium chloride), washed with Tyrode solution buffered with N-(2-hydroxyethyl)piperazine-N′-(2-ethanesulphonic acid) (5 mM HEPES) and alternately illuminated, under a fluorescence microscope (Nikon Diaphot) with light of 340 nm and 380 nm wavelength. A measurement point corresponds to a pair of video images at the two wavelengths (exposure time per image, 100 ms). The time interval between two measurement points is 3 s. […] The fluorescence intensity of the cells when illuminated with light of 380 nm wavelength was divided by the corresponding intensity at 340 nm, thereby giving the ratio.
HEK293 cells, which express the α subunit of an L-type Ca channel (Zong et al. 1995, Stetzer et al. 1996), were cultured in Dulbecco's modified Eagle's medium and 10% foetal calf serum at 5% CO2 and from 20° C. to 37° C. […] Individual resistant clones were analyzed as described below.
The alterations in the intracellular calcium concentration were measured using Fura-2. […] 100 μl Tyrode buffer were added to the wells of the microtitre plate and the cells were illuminated alternately, under a fluorescence microscope (Nikon Diaphot), with light of 340 nm and 380 nm wavelength. […]

CN1CCCC1c1cccnc1 (stereo not shown) [nicotine]
change in intracellular calcium (Fura-2 fluorescence ratio 380 nm/340 nm) following the addition of nicotine: increase in intracellular calcium
